Test results taken from patent US5830912A, “Derivatives of 6,8-difluoro-7-hydroxycoumarin” (Molecular Probes, Inc., priority 1996, dated 1998).
Where two headings read alike, the source gives them in different places.

Key:
[1] = pH titration of fluorophores (pKa determination); type: physicochemical
Protocol: The dye of interest is first dissolved in a series of buffers that have each been calibrated using a pH meter. Acetate buffers are typically used in the range of pH 4-6, and phosphate buffers in the pH range 6-8. Absorption measurements are made using solutions that are approximately 10 μM in concentration, and fluorescence measurements are made using solutions that are approximately 1 μM in concentration. The absorption or emission data is then plotted versus pH to determine pKa values.

[2] = Quantum yield of selected dyes (Table 3); type: physicochemical
[3] = Photobleaching during illumination in a fluorometer; type: physicochemical; conditions: after 33 minutes of illumination in a fluorometer at the wavelength of maximum excitation
Protocol: | *Percent decrease in fluorescence intensity after 33 minutes of | illumination in a fluorometer at the wavelength of maximum excitation.

[4] = tested on: alkaline phosphatase; test: Fluorogenic substrate assay with alkaline phosphatase; type: biochemical; conditions: pH 10.4 glycine buffer with 1 mM MgCl2, FIG. 4
Protocol: (§1) The utility of Compound 6 as a substrate for both alkaline and acid phosphatase is compared with the utility of the non-fluorinated analog, 4-methylumbelliferyl phosphate (MUP).
(§2) 1) Fluorescence yield: For an accurate comparison, the concentrations of the two substrates (initially approximately 10 mM) are matched by normalizing the absorbance of each substrate solution at 319 nm (pH 10) to a value of 0.52 (assuming the extinction coefficient of each substrate is approximately equivalent). The matched samples are then diluted 1:10 into excess enzyme buffer (10 units/mL), and the resulting fluorescence signal is recorded as a function of time (excitation 360 nm, emission 450 nm). The fluorescence yield obtained with acid phosphatase (pH 4.8, citrate buffer) is about 10 times greater when using Compound 6 than that obtained using MUP after one hour (FIG. 4). […] Using alkaline phosphatase (pH 10.4, glycine buffer with 1 mM MgCl2) the fluorescence yield obtained using Compound 6 is approximately 25% greater than that obtained using MUP (FIG. 4);

[5] = tested on: acid phosphatase; test: Fluorogenic substrate assay for acid phosphatase activity; type: biochemical
Protocol: as §1, §2
As above, the substrate samples are matched in concentration by normalizing absorbance values at 316 nm to a value of 0.525, then diluting 1:10.
3) Enzyme sensitivity: Serial dilutions of acid phosphatase are incubated with 50 μM of each substrate for 1 hour at pH 5, then fluorescence intensity at 460 nm is collected following 360 nm excitation.

[6] = molecular target: β-galactosidase (Escherichia coli, UniProt P00722); test: Fluorogenic substrate assay for β-galactosidase activity; type: biochemical; conditions: for Km: read-out: Km (Michaelis-Menton constant), 0.01 units β-galactosidase, FIG. 9
Protocol: The utility of Compound 9 as a substrate for β-galactosidase is compared with the utility of the non-fluorinated analog, 4-methylumbelliferyl β-D-galactoside (MUG).
1) Fluorescence yield: For an accurate comparison, the concentrations of the two substrates (initially approximately 10 mM) are matched by normalizing the absorbance of each substrate solution at 316 nm (pH 8.3; 20 mM sodium bicarbonate) to a value of 0.5 (assuming the extinction coefficient of each substrate is approximately equivalent). The matched samples are then diluted 1:10 into β-galactosidase buffer pH 7.0, and 2 units enzyme/mL are added. The use of Compound 9 as an enzyme substrate produces an approximately 8-fold signal enhancement over the use of MUG, when the fluorescence is measured at the reaction pH. […] However, even after optimization, the signal derived using Compound 9 (at pH 7.0) is still approximately 4-fold greater than that obtained using MUG (at pH 10).
2) Km determination: In a series of experiments, increasing amounts of each substrate are incubated with 0.01 units of β-galactosidase for 1 hour. The resulting fluorescence is measured by exciting at 360 nm, and the emission is collected at 460 nm.
3) Reaction rate: The fluorescence yield is measured at high substrate concentrations (50 μM) (relative to low enzyme concentration (0.01 units/mL)) over the course of 1 hour to compare reaction rates.
4) Enzyme sensitivity: Serial dilutions of […] are incubated with 50 μM of each substrate for 1 hour at pH 7, then fluorescence intensity at 460 nm is collected (following 360 nm excitation).

[7] = 1 hour, excitation 360 nm, emission 460 nm

β-galactosidase, sequence (P00722 2-1024): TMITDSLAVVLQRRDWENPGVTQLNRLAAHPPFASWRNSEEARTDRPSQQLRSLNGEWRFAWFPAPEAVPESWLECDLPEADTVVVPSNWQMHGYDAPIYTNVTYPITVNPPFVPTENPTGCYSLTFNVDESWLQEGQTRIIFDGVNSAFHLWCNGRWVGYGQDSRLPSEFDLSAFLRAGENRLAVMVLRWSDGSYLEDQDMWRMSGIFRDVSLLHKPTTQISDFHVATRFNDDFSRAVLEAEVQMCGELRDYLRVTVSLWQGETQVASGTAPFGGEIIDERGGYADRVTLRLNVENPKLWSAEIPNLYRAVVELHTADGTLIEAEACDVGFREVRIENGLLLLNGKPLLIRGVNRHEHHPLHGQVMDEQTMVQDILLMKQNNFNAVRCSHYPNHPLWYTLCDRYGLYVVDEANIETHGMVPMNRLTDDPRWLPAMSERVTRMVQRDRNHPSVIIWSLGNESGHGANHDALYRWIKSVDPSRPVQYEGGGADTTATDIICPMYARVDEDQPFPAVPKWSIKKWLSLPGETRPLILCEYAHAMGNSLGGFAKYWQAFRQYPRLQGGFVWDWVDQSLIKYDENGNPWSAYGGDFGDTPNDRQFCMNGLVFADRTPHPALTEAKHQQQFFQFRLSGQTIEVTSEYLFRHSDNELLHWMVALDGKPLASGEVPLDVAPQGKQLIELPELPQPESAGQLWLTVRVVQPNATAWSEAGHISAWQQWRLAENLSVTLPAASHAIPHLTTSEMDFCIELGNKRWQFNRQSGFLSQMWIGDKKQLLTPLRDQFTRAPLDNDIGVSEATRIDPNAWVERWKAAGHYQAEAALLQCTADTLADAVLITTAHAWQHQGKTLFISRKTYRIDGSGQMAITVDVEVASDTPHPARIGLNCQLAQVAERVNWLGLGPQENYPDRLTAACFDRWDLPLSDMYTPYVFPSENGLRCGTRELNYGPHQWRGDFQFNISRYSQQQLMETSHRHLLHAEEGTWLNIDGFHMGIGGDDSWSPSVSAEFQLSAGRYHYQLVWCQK

SMILES	pKa [1]	Quantum Yield (pH 9) [2]	Photobleaching: percent decrease in fluorescence intensity [3]	further results
Cc1cc(=O)oc2cc(O)c(F)cc12	6.4	0.64	20%	
Cc1cc(=O)oc2cc(O)cc(F)c12	5.9	0.78	12%	
Cc1cc(=O)oc2c(F)c(O)c(F)c(F)c12	4.2	0.54		
O=c1cc(C(F)(F)F)c2ccc(O)cc2o1	7.3	0.34	31%	
O=c1cc(C(F)(F)F)c2cc(F)c(O)cc2o1	5.7	0.44	18%	
Cc1c(CC(=O)O)c(=O)oc2cc(O)ccc12 [7-hydroxy-4-methylcoumarin-3-acetic acid]	~ 7.4			
Cc1cc(=O)oc2cc(O)ccc12 [7-hydroxy-4-methylcoumarin]	7.9	0.63	22%	pKa ([1]; stated in Example 47 for the product of MUG deglycosylation): 7.8
Cc1cc(=O)oc2c(F)c(O)c(F)cc12 [Compound 4, 6,8-difluoro-7-hydroxy-4-methylcoumarin]		0.89	5%	pKa ([1]; Table 3): 4.7
Cc1cc(=O)oc2c(F)c(OP(=O)(O)O)c(F)cc12 [Compound 6, 6,8-difluoro-7-hydroxy-4-methylcoumarin phosphate, free acid]				Fluorescence yield, increase over MUP [4]: approximately 25%; Enzyme concentration detection threshold, fold lower than with MUP ([5]; acid phosphatase 0.00001 to 10 units/mL, 50 μM substrate, 1 hour, pH 5, FIGS. 6 and 7): approximately 10 fold; Initial reaction rate of hydrolysis compared with MUP ([5]; acid phosphatase 0.01 units/mL, large excess of substrate, pH 4.8 citrate buffer, FIG. 5): significantly higher; Fluorescence signal relative to MUP after raising both reaction solutions to pH 10 ([5]; acid phosphatase reaction at pH 4.8, then raised to pH 10): twice as large; Sensitivity to enzyme concentration compared with MUP after raising the pH to 10 ([5]; acid phosphatase, 50 μM substrate, 1 hour at pH 5, then pH 10): approximately twice as sensitive; Fluorescence yield relative to MUP ([5]; acid phosphatase, pH 4.8 citrate buffer, after one hour, excitation 360 nm, emission 450 nm, FIG. 4): approximately 10 times
Cc1cc(=O)oc2c(F)c(O[C@@H]3O[C@H](CO)[C@H](O)[C@H](O)[C@H]3O)c(F)cc12 [Compound 9, 6,8-difluoro-7-hydroxy-4-methylcoumarin, β-D-galactopyranoside]				Reaction rate with β-galactosidase compared with MUG ([6]; 50 μM substrate, 0.01 units/mL enzyme, 1 hour, FIG. 10): react more rapidly; Enzyme concentration detection threshold, fold lower than with MUG ([6]; 50 μM substrate, 1 hour, pH 7, FIG. 11): approximately 10 fold; Km [6, 7]: ~25 µM; Fluorescence signal enhancement over MUG at the reaction pH ([6]; β-galactosidase 2 units/mL, pH 7.0, emission 460 nm, excitation 360 nm, FIG. 8): approximately 8 fold; Fluorescence signal (at pH 7.0) relative to MUG optimized at pH 10 ([6]; β-galactosidase 2 units/mL, MUG reaction raised to pH 10 with NaOH): approximately 4 fold
Cc1c(CC(=O)O)c(=O)oc2c(F)c(O)c(F)cc12 [Compound 11, 6,8-difluoro-7-hydroxy-4-methylcoumarin-3-acetic acid]	~ 6.2			
O=c1oc2c(F)c(O)c(F)cc2cc1-c1nc2ccccc2s1 [Compound 17, 3-benzothiazolyl-6,8-difluoro-7-hydroxycoumarin]	5.0			
O=c1cc(C(F)(F)F)c2cc(F)c(O)c(F)c2o1 [Compound 20, 6,8-difluoro-7-hydroxy-4-trifluoromethylcoumarin]	4.0	0.23	7%	
Cc1cc(=O)oc2cc(O[C@@H]3O[C@H](CO)[C@H](O)[C@H](O)[C@H]3O)ccc12 [MUG, 4-methylumbelliferyl β-D-galactoside]				Km [6, 7]: ~60 µM
